According to US20230151309A1, “PLANT-BASED HYDROALCOHOLIC FORMULATIONS FOR IMPROVING LIVER HEALTH” (priority 2021, published 2023):
Entries after “also recorded” stand apart in the source; their conditions may differ.

How the values were obtained:
Fa2N-4 cells = settings: human, 24 h
Description: Maximum Tolerated Dose is indicated as the % EtOH where viability as assayed using ATP levels diminished to below 50%.
Samples of botanical-infused alcoholic composition were prepared as follows. The samples were diluted to in deionized water to bring the alcohol concentration down to 8%. […] Intracellular ATP was expressed as % ATP vs. Vehicle Control. Data points represent mean±SEM of N=3 replicates.
The samples were also diluted to 6 and 2% alcohol.

Heme oxygenase-1 (HMOX1) = settings: liver cells, 12 and 24 hr post exposure
Description: (§1) The model consisted of human 3D epidermal model (Epiltestinal tissue from MarTek) linked to HepG2 cells (Liver) linked by unidirectional simulated blood flow. Simulated blood consisted of saline with human serum albumin.
Total RNA from the liver cells was obtained following the 12 and 24 hr time points post exposure to look at specific gene expression (NQO1, HMOX1, GSR) that are part of a group that protect the cell from oxidative stress and inflammation.
RNA was extracted from liver cells using the RNeasy Mini kit along with Proteinase Kand DNase I digestion to remove proteins and gDNA. DNase I was purchased from Qiagen. Total RNA was quantified using the NanoDrop 2000. The RNA obtained was used to measure the expression of the above target genes by RT-qPCR. […] TaqMan* fast virus 1-step master mix (Thermo Fisher) was used. One-Step RT-qPCR was performed using the QuantStudio 5 PCR Instrument from Thermo Fisher and by following the manufacturer's recommended cycling protocol. All primer/probe sets were obtained from Thermo Fisher.

intestinal tissue = experiment: Intestinal tissue viability by MTT assay (HuDMOP); assay type: cell-based, human; settings: 100 μL, 24 hr, % viable vs. vehicle control
Description: as §1
Diluted ethanol (EtOH) alone or a composition of the present invention diluted to the same level as the EtOH alone test are applied to the apical side of the intestine chamber at the start of the experiment. […] The health of the intestinal tissue was measured with a MTT assay. Pure EGCG was also applied as a control. Tissues were dosed with 100 μL of the solutions and were incubated at 37° C. with 5% CO2 for 24 hr. Cell viability was expressed at % viable vs. vehicle control. Data points represent mean±SEM of N=2 replicates.

[1] = system: NADPH Quinone Dehydrogenase 1 (NQO1); settings: liver cells, 12 and 24 hr post exposure
Description: as §1
(§2) Total RNA from the liver cells was obtained following the 12 and 24 hr time points post exposure to look at specific gene expression (NQO1, HMOX1, GSR) that are part of a group that protect the cell from oxidative stress and inflammation. An increase in fold change >2 is typically considered biologically relevant.
RNA was extracted from liver cells using the RNeasy Mini kit along with Proteinase Kand DNase I digestion to remove proteins and gDNA. DNase I was purchased from Qiagen. Total RNA was quantified using the NanoDrop 2000. The RNA obtained was used to measure the expression of the above target genes by RT-qPCR. 10.10. TaqMan* fast virus 1-step master mix (Thermo Fisher) was used. One-Step RT-qPCR was performed using the QuantStudio 5 PCR Instrument from Thermo Fisher and by following the manufacturer's recommended cycling protocol. All primer/probe sets were obtained from Thermo Fisher.

[2] = system: Glutathione Reductase (GSR); settings: liver cells, 12 and 24 hr post exposure
Description: as §1, §2
RNA was extracted from liver cells using the RNeasy Mini kit along with Proteinase Kand DNase I digestion to remove proteins and gDNA. […] Total RNA was quantified using the NanoDrop 2000. The RNA obtained was used to measure the expression of the above target genes by RT-qPCR. […] TaqMan* fast virus 1-step master mix (Thermo Fisher) was used. One-Step RT-qPCR was performed using the QuantStudio 5 PCR Instrument from Thermo Fisher and by following the manufacturer's recommended cycling protocol. All primer/probe sets were obtained from Thermo Fisher.

HepG2 liver cells = experiment: Reactive oxygen species (DCFDA/H2DCFDA Cellular ROS Assay Kit) in liver cells; assay type: cell-based; settings: HepG2, 24 hours; ethanol at 2, 3 and 4%
Description: Reactive Oxygen Species were measured using the DCFDA/H2DCFDA Cellular ROS Assay Kit from Abeam.
Liver stress was measured by measuring the amount of reactive oxygen species (ROS) produced after exposure to the alcoholic composition. HepG2 liver cells were plated and grown overnight. […] Then the cells were exposed to the Test articles for 24 hours at 37° C. with 5% CO2. […] Amount of ROS was measured using the DCFDA/H2DCFDA Cellular ROS Assay Kit from Abeam.
Data are expressed as Fold Change vs. Negative Control. Bars represent mean±SEM of three replicate samples.

[3] = EGCG kinetics in two-compartment HuDMOP (intestine to liver to perfusate), LC-MS/MS; assay type: in vitro ADME, human
Text: The human dynamic multiple organ plate (HuDMOP) developed by IONTOX (U.S. Pat. No. 9,631,167 B2) was used for testing. This plate is an accepted and unique state-of-the-art in vitro platform for evaluating drugs and chemicals. The FDA recognizes such in vitro models that provide comparative information of relative toxicity between an FDA approved compound and a new submission or in vitro data that focuses on mechanism. The HuDMOP system allows collection of intestinal absorption data, pharmacokinetic data, safety, and efficacy in a single model and can feature up to 6 organ compartments. Flow between the compartments is controlled through selection of dialysis membrane appropriate for the relevant organ systems, pressures, and membrane areas. The HuDMOP system is also used to generate data to support efficacy claims for botanicals.
Simulated blood consisted of saline with human serum albumin.
Epigallocatechin gallate (EGCG) from the novel composition was used to track its intestinal permeability, its movement into simulated blood and delivery to the liver. EGCG content was measured by LC-MS/MS (FIG. 6).

[4] = EGCG level in the botanical-infused alcoholic composition by LC-MS/MS (EGCG stability); assay type: physicochemical; settings: final alcoholic composition, pH below 4.65
Description: Intracellular ATP was expressed as % ATP vs. Vehicle Control. Data points represent mean±SEM of N=3 replicates.
The samples were tested by LC-MS/MS using a Waters Acquity UPLC system in-line with a Waters Xevo TO-S mass spectrometer via an electrospray interface. An EGCG powdered standard was purchased from Sigma-Aldrich. The EGCG standard was prepared as a 1 mg/mL solution in PBS containing 0.2% ascorbic acid and 0.005% EDTA to calculate the standard curve. EGCG was spiked into intestinal media at a 5% ratio of standard to media (% v/v). EGCG internal standard (IS) was prepared as a 200 ng/ml solution also using PBS containing 0.2% ascorbic acid and 0.005% EDTA. Ten μL of EGCG IS was added to 25 μL of EGCG standard, vortex mixed, and 2× extracted with 350 μL of ethyl acetate. […]
EGCG and samples of the alcoholic beverage composition were separated using a 1.0 mm×100 mm Waters HSS T3 column with 0.3% acetic acid/HO as mobile phase A and 0.3% acetic acid/acetonitrile as mobile. phase B. For gradient elution, initial B was 1%, increased to 95% Bat 2 minutes, 95% Bat 4 minutes, and back to 1% Bat 4.5 minutes. […] Data was analyzed using Waters Targetlynx application software and automatically exported as a CSV file for reporting.
EGCG was detected in the final alcoholic composition. […]

HMOX1 gene expression (Heme oxygenase-1 (HMOX1)) | NQO1 gene expression [1] | GSR gene expression [2] | SMILES | Maximum Tolerated Dose (ethanol causing 50% response in % ATP) (Fa2N-4 cells) | health of the intestinal tissue (cell viability, MTT) (intestinal tissue) | increase in ROS, Fold Change vs. Negative Control (HepG2 liver cells) | time EGCG starts to appear in the lower basolateral chamber ([3]; after application of composition batch 1 to intestinal tissue) | time EGCG appears in the liver ([3]; after applying composition batch 1 to the intestinal tissue) | EGCG in perfusate after processing in the liver compartment ([3]; composition batch 1) | EGCG maximum concentration (Cmax) ([3]; composition batch 1, after passing the intestinal membrane) | time of EGCG peak in basolateral chamber ([3]; composition batch 1, amount constant until 24 hours) | EGCG stability in the composition [4]
induces an increase | no increase | does not produce an increase | CCO [ethanol] | 8% | not affected | – | – | – | – | – | – | –
– | – | – | CC(C)(C)OO [positive control, Tert-butyl hydroperoxide] | – | – | 22 fold | – | – | – | – | – | –
– | – | – | O=C(O[C@@H]1Cc2c(O)cc(O)cc2O[C@@H]1c1cc(O)c(O)c(O)c1)c1cc(O)c(O)c(O)c1 [EGCG, epigallocatechin gallate] | – | not affected; also recorded: no cytotoxic effect | – | 2 h | 6 h | remains in the perfusate | about 1400 ng/ml | 12 h | stable
